Where two headings read alike, the source gives them in different places.
Assays:
[1] = tested on: E. faecalis DSM 12956 (VRE, vanB positive); conditions: broth microdilution, cation-adjusted Mueller-Hinton Broth II, ~4 × 10⁵ CFU/mL, 37 °C, 24 h; mean of three independent biological replicates, each in technical triplicate
E. faecalis ATCC 29212 = conditions: broth microdilution, 37 °C, 24 h
S. aureus N315 (MRSA) = conditions: broth microdilution, cation-adjusted Mueller-Hinton Broth II, ~4 × 10⁵ CFU/mL, 37 °C, 24 h; mean of three independent biological replicates, each in technical triplicate
[2] = tested on: S. aureus Mu50 (MRSA/VISA); conditions: broth microdilution, cation-adjusted Mueller-Hinton Broth II, ~4 × 10⁵ CFU/mL, 37 °C, 24 h, mean of three independent biological replicates, each in technical triplicate
[3] = tested on: S. aureus DSM 11822 (MDR); conditions: broth microdilution, cation-adjusted Mueller-Hinton Broth II, ~4 × 10⁵ CFU/mL, 37 °C, 24 h; mean of three independent biological replicates, each in technical triplicate
S. aureus HG001‐DRSA = conditions: daptomycin-resistant mutant of HG001; broth microdilution, cation-adjusted Mueller-Hinton Broth II, ~4 × 10⁵ CFU/mL, 37 °C, 24 h; mean of three independent biological replicates, each in technical triplicate
[4] = tested on: M. tuberculosis H37Ra ATCC 25177
E. coli K12 ΔtolC = conditions: broth microdilution, cation-adjusted Mueller-Hinton Broth II, 37 °C, 24 h, mean of three independent biological replicates, each in technical triplicate; for MIC, E. coli K12 ΔtolC (tolC‐deficient) + PMBN: co‐incubated with sub‐lethal concentrations of polymyxin B nonapeptide (PMBN); for MIC, E. coli K12 ΔtolC: without PMBN, ~4 × 10⁵ CFU/mL
[5] = tested on: E. coli WO153 (AB1157, recJ asmB1, ΔtolC); conditions: broth microdilution, cation-adjusted Mueller-Hinton Broth II, ~4 × 10⁵ CFU/mL, 37 °C, 24 h; mean of three independent biological replicates, each in technical triplicate
E. coli K12 ΔacrB = conditions: broth microdilution, cation-adjusted Mueller-Hinton Broth II, ~4 × 10⁵ CFU/mL, 37 °C, 24 h, mean of three independent biological replicates, each in technical triplicate
[6] = tested on: vancomycin‐resistant E. faecium clinical isolates with reduced susceptibility to daptomycin (n = 26)
[7] = tested on: E. faecium DSM 17050 (VRE, vanA positive); conditions: broth microdilution, cation-adjusted Mueller-Hinton Broth II, ~4 × 10⁵ CFU/mL, 37 °C, 24 h; mean of three independent biological replicates, each in technical triplicate
[8] = cation-adjusted Mueller-Hinton Broth II, ~4 × 10⁵ CFU/mL, mean of three independent biological replicates, each in technical triplicate
[9] = reference strain in Table S5, MHB II, daptomycin with 50 µg/mL Ca2+, mean of two independent experiments
[10] = 26 VRE E. faecium clinical isolates, broth microdilution, MHB II, daptomycin with 50 µg/mL Ca2+, mean of two independent experiments

CN[C@H](CC(C)C)C(=O)N[C@H]1C(=O)N[C@@H](CC(N)=O)C(=O)N[C@H]2C(=O)N[C@H]3C(=O)N[C@H](C(=O)N[C@H](C(=O)O)c4cc(O)cc(O)c4-c4cc3ccc4O)[C@H](O)c3ccc(c(Cl)c3)Oc3cc2cc(c3O[C@@H]2O[C@H](CO)[C@@H](O)[C@H](O)[C@H]2O[C@H]2C[C@](C)(N)[C@H](O)[C@H](C)O2)Oc2ccc(cc2Cl)[C@H]1O [Vancomycin, vancomycin]
1 µg/mL: MIC, S. aureus DSM 11822 (MDR) [3]
4 µg/mL: MIC, E. faecalis ATCC29212 (E. faecalis ATCC 29212; [8]) | MIC, E. faecalis ATCC29212 (E. faecalis ATCC 29212; [9]) | MIC, S. aureus HG001‐DRSA (S. aureus HG001‐DRSA)
>64 µg/mL: MIC, E. coli K12 ΔtolC (tolC‐deficient) + PMBN (E. coli K12 ΔtolC) | MIC, E. coli K12 ΔtolC (E. coli K12 ΔtolC) | MIC, E. coli K12 ΔacrB (E. coli K12 ΔacrB) | MIC50 [6, 10] | MIC90 [6, 10]
> 64 µg/mL: MIC, Enterococcus faecium isolate 1 ([6]; clinical isolate 1, broth microdilution, MHB II, 37 °C, 24 h, daptomycin with 50 µg/mL Ca2+, mean of two independent experiments) | MIC, Enterococcus faecium isolate 2 ([6]; clinical isolate 2, broth microdilution, MHB II, 37 °C, 24 h, daptomycin with 50 µg/mL Ca2+, mean of two independent experiments) | MIC, Enterococcus faecium isolate 4 ([6]; clinical isolate 4, broth microdilution, MHB II, 37 °C, 24 h, daptomycin with 50 µg/mL Ca2+, mean of two independent experiments) | MIC, Enterococcus faecium isolate 5 ([6]; clinical isolate 5, broth microdilution, MHB II, 37 °C, 24 h, daptomycin with 50 µg/mL Ca2+, mean of two independent experiments) | MIC, Enterococcus faecium isolate 6 ([6]; clinical isolate 6, broth microdilution, MHB II, 37 °C, 24 h, daptomycin with 50 µg/mL Ca2+, mean of two independent experiments) | MIC, Enterococcus faecium isolate 7 ([6]; clinical isolate 7, broth microdilution, MHB II, 37 °C, 24 h, daptomycin with 50 µg/mL Ca2+, mean of two independent experiments) | MIC, Enterococcus faecium isolate 8 ([6]; clinical isolate 8, broth microdilution, MHB II, 37 °C, 24 h, daptomycin with 50 µg/mL Ca2+, mean of two independent experiments) | MIC, Enterococcus faecium isolate 9 ([6]; clinical isolate 9, broth microdilution, MHB II, 37 °C, 24 h, daptomycin with 50 µg/mL Ca2+, mean of two independent experiments) | MIC, Enterococcus faecium isolate 10 ([6]; clinical isolate 10, broth microdilution, MHB II, 37 °C, 24 h, daptomycin with 50 µg/mL Ca2+, mean of two independent experiments) | MIC, Enterococcus faecium isolate 11 ([6]; clinical isolate 11, broth microdilution, MHB II, 37 °C, 24 h, daptomycin with 50 µg/mL Ca2+, mean of two independent experiments) | MIC, Enterococcus faecium isolate 12 ([6]; clinical isolate 12, broth microdilution, MHB II, 37 °C, 24 h, daptomycin with 50 µg/mL Ca2+, mean of two independent experiments) | MIC, Enterococcus faecium isolate 13 ([6]; clinical isolate 13, broth microdilution, MHB II, 37 °C, 24 h, daptomycin with 50 µg/mL Ca2+, mean of two independent experiments) | MIC, Enterococcus faecium isolate 14 ([6]; clinical isolate 14, broth microdilution, MHB II, 37 °C, 24 h, daptomycin with 50 µg/mL Ca2+, mean of two independent experiments) | MIC, Enterococcus faecium isolate 15 ([6]; clinical isolate 15, broth microdilution, MHB II, 37 °C, 24 h, daptomycin with 50 µg/mL Ca2+, mean of two independent experiments) | MIC, Enterococcus faecium isolate 16 ([6]; clinical isolate 16, broth microdilution, MHB II, 37 °C, 24 h, daptomycin with 50 µg/mL Ca2+, mean of two independent experiments) | MIC, Enterococcus faecium isolate 17 ([6]; clinical isolate 17, broth microdilution, MHB II, 37 °C, 24 h, daptomycin with 50 µg/mL Ca2+, mean of two independent experiments) | MIC, Enterococcus faecium isolate 18 ([6]; clinical isolate 18, broth microdilution, MHB II, 37 °C, 24 h, daptomycin with 50 µg/mL Ca2+, mean of two independent experiments) | MIC, Enterococcus faecium isolate 19 ([6]; clinical isolate 19, broth microdilution, MHB II, 37 °C, 24 h, daptomycin with 50 µg/mL Ca2+, mean of two independent experiments) | MIC, Enterococcus faecium isolate 20 ([6]; clinical isolate 20, broth microdilution, MHB II, 37 °C, 24 h, daptomycin with 50 µg/mL Ca2+, mean of two independent experiments) | MIC, Enterococcus faecium isolate 21 ([6]; clinical isolate 21, broth microdilution, MHB II, 37 °C, 24 h, daptomycin with 50 µg/mL Ca2+, mean of two independent experiments) | MIC, Enterococcus faecium isolate 22 ([6]; clinical isolate 22, broth microdilution, MHB II, 37 °C, 24 h, daptomycin with 50 µg/mL Ca2+, mean of two independent experiments) | MIC, Enterococcus faecium isolate 23 ([6]; clinical isolate 23, broth microdilution, MHB II, 37 °C, 24 h, daptomycin with 50 µg/mL Ca2+, mean of two independent experiments) | MIC, Enterococcus faecium isolate 24 ([6]; clinical isolate 24, broth microdilution, MHB II, 37 °C, 24 h, daptomycin with 50 µg/mL Ca2+, mean of two independent experiments) | MIC, Enterococcus faecium isolate 25 ([6]; clinical isolate 25, broth microdilution, MHB II, 37 °C, 24 h, daptomycin with 50 µg/mL Ca2+, mean of two independent experiments) | MIC, Enterococcus faecium isolate 26 ([6]; clinical isolate 26, broth microdilution, MHB II, 37 °C, 24 h, daptomycin with 50 µg/mL Ca2+, mean of two independent experiments)
2 µg/mL: MIC, S. aureus N315 (MRSA) (S. aureus N315 (MRSA))
32 µg/mL: MIC, E. coli WO153 (AB1157, recJ asmB1, ΔtolC) [5]
64 µg/mL: MIC, M. tuberculosis H37Ra ATCC 25177 [4] | MIC, Enterococcus faecium isolate 3 ([6]; clinical isolate 3, broth microdilution, MHB II, 37 °C, 24 h, daptomycin with 50 µg/mL Ca2+, mean of two independent experiments)
16 µg/mL: MIC, E. faecalis DSM 12956 (VRE, vanB positive) [1]
8 µg/mL: MIC, S. aureus Mu50 (MRSA/VISA) [2]

CN[C@@]1(C)C[C@H](O[C@@H]2[C@H](O)C[C@H](O[C@H]3[C@H](C)O[C@@H](O[C@H]4[C@H](O[C@H]5[C@H](C)O[C@@H](Oc6ccc(C[C@@H](O)C(=O)N[C@H]7CNC(=O)NC[C@@H](C(=O)N[C@H](Cc8ccccc8)C(=O)O)NC(=O)[C@H]([C@H](C)c8c[nH]c9ccc(Cl)cc89)NC7=O)cc6)C[C@]5(C)N)O[C@@H](C)[C@H](O)[C@H]4O)C[C@]3(C)NC)O[C@H]2C)O[C@@H](C)[C@@H]1OC [Saarvienin A, saarvienin A]
>64 µg/mL: MIC, E. coli K12 ΔacrB (E. coli K12 ΔacrB)
2 µg/mL: MIC, E. faecalis ATCC29212 (E. faecalis ATCC 29212; [8]) | MIC, E. faecalis ATCC29212 (E. faecalis ATCC 29212; [9]) | MIC, E. coli WO153 (AB1157, recJ asmB1, ΔtolC) [5]
32 µg/mL: MIC, M. tuberculosis H37Ra ATCC 25177 [4] | MIC, E. coli K12 ΔtolC (tolC‐deficient) + PMBN (E. coli K12 ΔtolC)
non‐susceptible: MIC, E. coli K12 ΔacrB (E. coli K12 ΔacrB; listed as 1)
64 µg/mL: MIC, E. coli K12 ΔtolC (E. coli K12 ΔtolC)
0.5 to 1 µg/mL: MIC Range ([6]; 24 h)
1 µg/mL: MIC, E. faecalis DSM 12956 (VRE, vanB positive) [1] | MIC, E. faecium DSM 17050 (VRE, vanA positive) [7] | MIC, S. aureus Mu50 (MRSA/VISA) [2] | MIC, S. aureus HG001‐DRSA (S. aureus HG001‐DRSA) | MIC, Enterococcus faecium isolate 1 ([6]; 24 h)
0.5 µg/mL: MIC, S. aureus N315 (MRSA) (S. aureus N315 (MRSA)) | MIC, S. aureus Mu50 (MRSA/VISA) ([2]; listed as 1) | MIC, S. aureus DSM 11822 (MDR) [3] | MIC50 ([6]; 24 h) | MIC90 ([6]; 24 h) | MIC, Enterococcus faecium isolate 2 ([6]; 24 h) | MIC, Enterococcus faecium isolate 3 ([6]; 24 h) | MIC, Enterococcus faecium isolate 4 ([6]; 24 h) | MIC, Enterococcus faecium isolate 5 ([6]; 24 h) | MIC, Enterococcus faecium isolate 6 ([6]; 24 h) | MIC, Enterococcus faecium isolate 7 ([6]; 24 h) | MIC, Enterococcus faecium isolate 8 ([6]; 24 h) | MIC, Enterococcus faecium isolate 9 ([6]; 24 h) | MIC, Enterococcus faecium isolate 10 ([6]; 24 h) | MIC, Enterococcus faecium isolate 11 ([6]; 24 h) | MIC, Enterococcus faecium isolate 12 ([6]; 24 h) | MIC, Enterococcus faecium isolate 13 ([6]; 24 h) | MIC, Enterococcus faecium isolate 14 ([6]; 24 h) | MIC, Enterococcus faecium isolate 15 ([6]; 24 h) | MIC, Enterococcus faecium isolate 16 ([6]; 24 h) | MIC, Enterococcus faecium isolate 17 ([6]; 24 h) | MIC, Enterococcus faecium isolate 18 ([6]; 24 h) | MIC, Enterococcus faecium isolate 19 ([6]; 24 h) | MIC, Enterococcus faecium isolate 20 ([6]; 24 h) | MIC, Enterococcus faecium isolate 21 ([6]; 24 h) | MIC, Enterococcus faecium isolate 22 ([6]; 24 h) | MIC, Enterococcus faecium isolate 23 ([6]; 24 h) | MIC, Enterococcus faecium isolate 24 ([6]; 24 h) | MIC, Enterococcus faecium isolate 25 ([6]; 24 h) | MIC, Enterococcus faecium isolate 26 ([6]; 24 h)

Source: paper PMC12171682, “Saarvienin A—A Novel Glycopeptide with Potent Activity against Drug‐Resistant Bacteria” (Angewandte Chemie (International Ed. in English), 2025)
